Measurements from PubChem BioAssay (NCI).
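48-hour exposure; five concentrations; linearly interpolated endpoints. GI50 is the concentration that inhibits growth by half. At the TGI there is no net growth.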

Tests used:
Assay in all cases: DTP human tumour cell line panel, 48 h
[1] = test system: 786-0 renal
[2] = test system: A498 renal
[3] = test system: A549 NSCLC
[4] = test system: ACHN renal
[5] = test system: BT-549 breast
[6] = test system: CAKI-1 renal
[7] = test system: CCRF-CEM leukemia
[8] = test system: COLO 205 colon
[9] = test system: DU-145 prostate
[10] = test system: EKVX NSCLC
[11] = test system: HCC-2998 colon
[12] = test system: HCT-116 colon
[13] = test system: HCT-15 colon
[14] = test system: HL-60(TB) leukemia
[15] = test system: HOP-62 NSCLC
[16] = test system: HOP-92 NSCLC
[17] = test system: HS 578T breast
[18] = test system: IGROV1 ovarian
[19] = test system: K-562 leukemia
[20] = test system: KM12 colon
[21] = test system: LOX IMVI melanoma
[22] = test system: M14 melanoma
[23] = test system: MALME-3M melanoma
[24] = test system: MCF7 breast
[25] = test system: MDA-MB-231 breast
[26] = test system: MDA-MB-435
[27] = test system: MOLT-4 leukemia
[28] = test system: NCI-H226 lung
[29] = test system: NCI-H23 lung
[30] = test system: NCI-H460 lung
[31] = test system: NCI-H522 lung
[32] = test system: NCI/ADR-RES ovarian
[33] = test system: OVCAR-3 ovarian
[34] = test system: OVCAR-4 ovarian
[35] = test system: OVCAR-5 ovarian
[36] = test system: OVCAR-8 ovarian
[37] = test system: PC-3 prostate
[38] = test system: RPMI-8226 leukemia
[39] = test system: RXF 393 renal
[40] = test system: SF-268 CNS
[41] = test system: SF-295 CNS
[42] = test system: SF-539 CNS
[43] = test system: SK-MEL-2 melanoma
[44] = test system: SK-MEL-28 melanoma
[45] = test system: SK-MEL-5 melanoma
[46] = test system: SK-OV-3 ovarian
[47] = test system: SN12C renal
[48] = test system: SNB-19 CNS
[49] = test system: SR leukemia
[50] = test system: SW-620 colon
[51] = test system: T-47D breast
[52] = test system: TK-10 renal
[53] = test system: U251 CNS
[54] = test system: UACC-257 melanoma
[55] = test system: UACC-62 melanoma
[56] = test system: UO-31 renal

SMILES: c1cc2ccc3cc2cc1CNCCN1CCNCc2ccc4ccc(cc4c2)CNCCN(CCNC3)CCNCc2ccc3ccc(cc3c2)CNCC1
- GI50 [1]: 10.4 µM
- TGI [1]: 35.4 µM
- GI50 [2]: 10.9 µM
- TGI [2]: 30.4 µM
- GI50 [3]: 2.62 µM
- TGI [3]: > 100 µM
- GI50 [4]: 39.4 µM
- TGI [4]: > 100 µM
- GI50 [5]: 2.51 µM
- TGI [5]: 7.77 µM
- GI50 [6]: 41 µM
- TGI [6]: > 100 µM
- GI50 [7]: 2.34 µM
- TGI [7]: > 100 µM
- GI50 [8]: 2.12 µM
- TGI [8]: 6.86 µM
- GI50 [9]: 2.1 µM
- TGI [9]: 5.83 µM
- GI50 [10]: 4.84 µM
- TGI [10]: > 100 µM
- GI50 [11]: 2.27 µM
- TGI [11]: 6.4 µM
- GI50 [12]: 2.57 µM
- TGI [12]: 8.82 µM
- GI50 [13]: 80.1 µM
- TGI [13]: > 100 µM
- GI50 [14]: 2.32 µM
- TGI [14]: 5.53 µM
- GI50 [15]: 2.99 µM
- TGI [15]: 13.2 µM
- GI50 [16]: 1.31 µM
- TGI [16]: 5.41 µM
- GI50 [17]: 3 µM
- TGI [17]: 17.4 µM
- GI50 [18]: 2.89 µM
- TGI [18]: 13.1 µM
- GI50 [19]: 1.91 µM
- TGI [19]: > 100 µM
- GI50 [20]: 2.54 µM
- TGI [20]: 6.47 µM
- GI50 [21]: 2.03 µM
- TGI [21]: 4.42 µM
- GI50 [22]: 3.27 µM
- TGI [22]: 13.1 µM
- GI50 [23]: 2.11 µM
- TGI [23]: 5.58 µM
- GI50 [24]: 0.392 µM
- TGI [24]: 5.15 µM
- GI50 [25]: 1.91 µM
- TGI [25]: 6.99 µM
- GI50 [26]: 2.41 µM
- TGI [26]: 6.25 µM
- GI50 [27]: 2.82 µM
- TGI [27]: 9.35 µM
- GI50 [28]: 2.27 µM
- TGI [28]: 6.11 µM
- GI50 [29]: 1.98 µM
- TGI [29]: 5.99 µM
- GI50 [30]: 2.95 µM
- TGI [30]: 10.8 µM
- GI50 [31]: 0.431 µM
- TGI [31]: 5.56 µM
- GI50 [32]: > 100 µM
- TGI [32]: > 100 µM
- GI50 [33]: 2.66 µM
- TGI [33]: 8.04 µM
- GI50 [34]: 2.89 µM
- TGI [34]: 7.22 µM
- GI50 [35]: 2.38 µM
- TGI [35]: 7.96 µM
- GI50 [36]: 3.61 µM
- TGI [36]: > 100 µM
- GI50 [37]: 2.22 µM
- TGI [37]: 6.99 µM
- GI50 [38]: 1.62 µM
- TGI [38]: 6.03 µM
- GI50 [39]: 17.3 µM
- TGI [39]: 39.4 µM
- GI50 [40]: 2.25 µM
- TGI [40]: 6.44 µM
- GI50 [41]: 11.9 µM
- TGI [41]: 38.9 µM
- GI50 [42]: 1.89 µM
- TGI [42]: 4.87 µM
- GI50 [43]: 2.36 µM
- TGI [43]: 5.89 µM
- GI50 [44]: 2.42 µM
- TGI [44]: 6.32 µM
- GI50 [45]: 56 µM
- TGI [45]: > 100 µM
- GI50 [46]: 2.8 µM
- TGI [46]: 8.3 µM
- GI50 [47]: 1.71 µM
- TGI [47]: 8.57 µM
- GI50 [48]: 2.66 µM
- TGI [48]: 8.38 µM
- GI50 [49]: 2.13 µM
- TGI [49]: 7.87 µM
- GI50 [50]: 3.36 µM
- TGI [50]: > 100 µM
- GI50 [51]: 2.05 µM
- TGI [51]: 7.54 µM
- GI50 [52]: 18.6 µM
- TGI [52]: 64.8 µM
- GI50 [53]: 1.48 µM
- TGI [53]: 10.4 µM
- GI50 [54]: 3.93 µM
- TGI [54]: > 100 µM
- GI50 [55]: 2.37 µM
- TGI [55]: 6.95 µM
- GI50 [56]: > 100 µM
- TGI [56]: > 100 µM
